Results reported in patent US9370186B2 (priority 2012, dated 2016).
Values after ≈ are worked out from the molar mass of the structure shown. Where two headings read alike, the source gives them in different places.

Experiments:
Phytophthora infestans [1] = assay type: in vivo; conditions: tomatoes, 3 days after inoculation
Phytophthora infestans [2] = assay: whole plant or invertebrate; assay type: in vivo; conditions: for Practical dose for 70% efficacy: EC70, compound alone, preventive 24 h, potato leaf discs; for EC50: Phytophthora infestans, in Solanum tuberosum, foliar, 24 h, read-out: Practical dose for 50% efficacy

| SMILES | Efficacy in % found (Phytophthora infestans [1]; 5 ppm a.i.) [%] | Practical dose for 70% efficacy (Phytophthora infestans [2]) [mg a.i./L] | EC50 (Phytophthora infestans [2]) [µg/mL] | Efficacy (%) ethaboxam alone (Phytophthora infestans [2]; ethaboxam 0.75 mg a.i./L) [%] | Efficacy (%) ethaboxam alone (Phytophthora infestans [2]; ethaboxam 1.5 mg a.i./L) [%] | Efficacy (%) ethaboxam alone (Phytophthora infestans [2]; ethaboxam 3 mg a.i./L) [%] | Efficacy (%) ethaboxam alone (Phytophthora infestans [2]; ethaboxam 6 mg a.i./L) [%] | Efficacy (%) ethaboxam alone (Phytophthora infestans [2]; ethaboxam 12 mg a.i./L) [%] | Efficacy (%) ethaboxam alone (Phytophthora infestans [2]; ethaboxam 24 mg a.i./L) [%] | Efficacy (%) ethaboxam alone (Phytophthora infestans [2]; ethaboxam 75 mg a.i./L) [%] | Efficacy in % found (Phytophthora infestans [1]; 0.5 ppm a.i.) [%] | Efficacy (%) fenamidone alone (Phytophthora infestans [2]; fenamidone 0.5 mg a.i./L) [%] | Efficacy (%) fenamidone alone (Phytophthora infestans [2]; fenamidone 1 mg a.i./L) [%] | Efficacy (%) fenamidone alone (Phytophthora infestans [2]; fenamidone 2 mg a.i./L) [%] | Efficacy (%) fenamidone alone (Phytophthora infestans [2]; fenamidone 4 mg a.i./L) [%] | Efficacy (%) fenamidone alone (Phytophthora infestans [2]; fenamidone 8 mg a.i./L) [%] | Efficacy (%) fenamidone alone (Phytophthora infestans [2]; fenamidone 16 mg a.i./L) [%] | Efficacy (%) fenamidone alone (Phytophthora infestans [2]; fenamidone 50 mg a.i./L) [%] |
| --- | --- | --- | --- | --- | --- | --- | --- | --- | --- | --- | --- | --- | --- | --- | --- | --- | --- | --- |
| CCNc1nc(CC)c(C(=O)NC(C#N)c2cccs2)s1 (centres unmarked) [ethaboxam, N-(cyano-2-thienylmethyl)-4-ethyl-2-(ethylamino)-5-thiazolcarboxamide] | 40 | 27.820 | 15.3 (≈ 47.7 µM) | 0 | 0 | 5 | 13 | 67 | 73 | 75 | – | – | – | – | – | – | – | – |
| CSC1=N[C@@](C)(c2ccccc2)C(=O)N1Nc1ccccc1 [fenamidone, (S)-3,5-dihydro-5-methyl-2-(methylthio)-5-phenyl-3-(phenylamino)-4H-imidazol-4-one] | – | 9.764 | 6.26 (≈ 20.1 µM) | – | – | – | – | – | – | – | 28 | 0 | 0 | 5 | 29 | 83 | 82 | 91 |
